≈ marks a conversion by molar mass, not a printed value. Non-standard residues stand in square brackets, D forms with d. Residues, ends and D or L forms follow the SMILES beside them. Dab(3S-OH) = NC[C@H](O)[C@H](N)C(=O)O; Phe(2-F) = N[C@@H](Cc1ccccc1F)C(=O)O; ΔZArg = N=C(N)NCC/C=C(\N)C(=O)O; dOrn = NCCC[C@@H](N)C(=O)O; Dab = NCC[C@H](N)C(=O)O
Legend:
[1] = test system: human renal proximal tubular epithelial cells (HRPTEpiC); test: Multiplexed HRPTEpiC cytotoxicity assay (cell viability, KIM-1, HSP27)
Procedure: The multiplexed cytotoxicity assay on human renal proximal tubule epithelial cells (HRPTEpiC) was conducted by Eurofins Panlabs (Eurofins Panlabs, Inc., St. Charles, MO) by using an image-based high content analysis (HCA) technique where cells were fixed and stained with nuclear dye to visualize nuclei and fluorescently labeled antibodies to detect drug-induced cellular injury and cellular stress arising from oxidative and chemical stress. Cells were seeded into 384-well plates and grown in RPMI 1640, 10% fetal bovine serum (FBS), 2 mM L-alanyl-L-glutamine, and 1 mM sodium pyruvate in a humidified atmosphere of 5% CO2 at 37°C. […] Compounds were serially diluted 3.16-fold and assayed over 10 concentrations in a final assay concentration of 0.5% dimethyl sulfoxide (DMSO) from 100 μM to 3.7 nM. At the same time, a time zero untreated cell plate was generated. After a 48-h incubation period, cells were fixed and stained with fluorescently labeled antibodies and nuclear dyed to allow visualization of nuclei, injured cells, and stressed cells. Injured cells were detected using a KIM-1 (kidney injury molecule 1) antibody. Stressed cells were detected using an anti-HSP27 (heat shock protein 27) antibody. Cell proliferation was measured by the signal intensity of the incorporated nuclear dye. The cell proliferation assay output was referred to as the relative cell count. To determine the cell proliferation endpoint, the cell proliferation data output was transformed to percentage of control (POC) using the following formula: POC = relative cell count in compound wells/relative cell count in vehicle wells × 100. The signal intensity of the incorporated cellular stress and injury measurements were normalized with the relative cell count from each well. Automated fluorescence microscopy was carried out using a Molecular Devices ImageXpress micro-imager, and images were collected with a 4× objective.

[2] = in vitro; settings: liver microsomes, pH 7.4
Procedure: The microsome metabolic stability assays were performed by Cyprotex Discovery Ltd. (Macclesfield, UK). Pooled microsomes from different species (mouse, rat, dog, monkey, and human) were stored at −80°C prior to use. […] The final incubation volume was 500 μl. A minus cofactor control incubation was included for each compound tested, in which 0.1 M phosphate buffer (pH 7.4) was added instead of NADPH (minus NADPH). Two control compounds were included with each species. Each compound was incubated for 0, 5, 15, 30, and 45 min. The control (minus NADPH) was incubated for 45 min only. The reactions were stopped by transferring an aliquot of the mixture to 40% TCA in water containing an internal standard (NOSO-95216, 1 μM final concentration) for the test compounds, or methanol for the control compounds, at the desired time points. The termination plates were centrifuged at 2,500 rpm for 20 min at 4°C to precipitate the protein. Following protein precipitation, the test compound sample supernatants were diluted with analytical-grade water, whereas the control compounds were diluted with an internal standard (metoprolol) in water. The test compound samples were analyzed by LC-MS/MS.

[3] = in vitro; settings: plasma, pH 7.4
Procedure: The final incubation volume was 200 μl. All incubations were performed singularly for each compound at each time point. A vehicle control incubation was included using either water or DMSO, along with a control compound known to be metabolized specifically by each species. Each compound was incubated for 0, 15, 30, 60, and 120 min at 37°C. The reactions were stopped by the addition of 40% TCA in water containing an internal standard (NOSO-95216, 1 μM final concentration) for the test compounds, or methanol for the control compounds, at the appropriate time points. The vehicle control incubation was incubated for 120 min only. The termination plates were centrifuged at 3,000 rpm for 45 min at 4°C to precipitate the protein. Following protein precipitation, the test compound sample supernatants were diluted with analytical-grade water, whereas the control compounds were diluted with an internal standard (metoprolol) in water. The test compound samples were analyzed by LC-MS/MS.

[4] = in vitro; settings: plasma (EDTA anticoagulant), pH 7.4
Procedure: The […] were performed by Cyprotex Discovery Ltd. (Macclesfield, UK). […] The experiment was performed using equilibrium dialysis (RED device) with the two compartments separated by a semipermeable membrane. Buffer (pH 7.4) was added to one side of the membrane and the plasma solution to the other. After equilibration (4 h), samples were taken from both sides of the membrane. Calibration standards were prepared in plasma and buffer. All incubations were performed in triplicate. A control compound was included in each experiment. Incubation of the control compound samples was terminated with acetonitrile containing an internal standard (metoprolol). Incubation of the test compound samples was terminated with 40% TCA in water containing in internal standard (NOSO-95216; 1 μM final concentration). All samples were centrifuged and further diluted with water prior to analysis. The solutions for each batch of control compounds were combined into two groups (protein free and protein containing) and cassette analyzed by LC-MS/MS using two sets of calibration standards for protein-free (seven points) and protein-containing solutions (seven points).

[5] = test system: E. coli UTI89
Procedure: MIC values were determined using Clinical and Laboratory Standards Institute (CLSI) broth microdilution methodology, colony direct suspension, as described in CLSI document M07-A10 ([42]).

Row | Compound | concentration inducing a significant (5-fold) increase of KIM-1 level ([1]; tested up to 100 μM) | half-life at 1 μM ([2]; dog) | half-life at 1 μM ([2]; human) | half-life at 1 μM ([2]; monkey) | half-life at 1 μM ([2]; mouse) | half-life at 1 μM ([2]; rat) | half-life at 10 μM ([3]; dog) | half-life at 10 μM ([3]; human) | half-life at 10 μM ([3]; monkey) | half-life at 10 μM ([3]; mouse) | half-life at 10 μM ([3]; rat) | fraction unbound at 4 h, 2 μM ([4]; dog) | fraction unbound at 4 h, 2 μM ([4]; human) | fraction unbound at 4 h, 2 μM ([4]; mouse) | fraction unbound at 4 h, 2 μM ([4]; rat) | MIC [5] | IC50 ([1]; read-out: cytotoxicity IC50 (cell viability), 48-h incubation) | concentration inducing a significant (5-fold) increase of HSP27 level ([1]; tested up to 100 μM)
1 | N=C(N)NCC/C=C(\NC(=O)[C@H](CCCCN)NC(=O)[C@H](Cc1ccccc1F)NC(=O)[C@@H]1CCCN1C(=O)[C@@H](CCCN)NC(=O)CNC(=O)[C@H](CCN)NC(=O)[C@@H](NC(=O)[C@@H](N)CCCCN)[C@@H](O)CN)C(=O)O [NOSO-502] (H-K[Dab(3S-OH)][Dab]G[dOrn]P[Phe(2-F)]K[ΔZArg]-OH) | > 100 µM | 1.68 h | 2.42 h | 2.45 h | 1.93 h | 2.15 h | 2.63 h | 1.32 h | 1.6 h | 0.9 h | 0.6 h | 0.176 | 0.187 | 0.198 | 0.205 | 4 µg/mL (≈ 3.71 µM) | – | –
2 | polymyxin B [PMB] | 12.1 µM | – | – | – | – | – | – | – | – | – | – | – | – | – | – | – | 11.8 µM | 9.7 µM

Reference: paper PMC6125496 (Antimicrobial Agents and Chemotherapy, 2018)
